Measured values taken from ChEMBL document CHEMBL1201862, “PubChem BioAssay data set” (2004).
Calls of active or inactive are those of the source.

Columns and labels:
Candida albicans = experiment: Candida growth inhibition combined with fluconazole – CaCi-2 strain, Alamar Blue, dry powder, set 3, dose response (AID 488907); format: functional, organism-based
[1] = target: T1, Microphthalmia-associated transcription factor (Homo sapiens, UniProt O75030); experiment: reducers of TRPM1 reporter luminescence, concentration series – cell-based, SK-MEL-5, cherry-picked, set 3, MITF inhibitor project, dose response (AID 493073); format: functional;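 note: SK-MEL-5 melanoma cells with luciferase driven by the MITF target TRPM1 promoter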
T1 sequence (O75030 whole entry): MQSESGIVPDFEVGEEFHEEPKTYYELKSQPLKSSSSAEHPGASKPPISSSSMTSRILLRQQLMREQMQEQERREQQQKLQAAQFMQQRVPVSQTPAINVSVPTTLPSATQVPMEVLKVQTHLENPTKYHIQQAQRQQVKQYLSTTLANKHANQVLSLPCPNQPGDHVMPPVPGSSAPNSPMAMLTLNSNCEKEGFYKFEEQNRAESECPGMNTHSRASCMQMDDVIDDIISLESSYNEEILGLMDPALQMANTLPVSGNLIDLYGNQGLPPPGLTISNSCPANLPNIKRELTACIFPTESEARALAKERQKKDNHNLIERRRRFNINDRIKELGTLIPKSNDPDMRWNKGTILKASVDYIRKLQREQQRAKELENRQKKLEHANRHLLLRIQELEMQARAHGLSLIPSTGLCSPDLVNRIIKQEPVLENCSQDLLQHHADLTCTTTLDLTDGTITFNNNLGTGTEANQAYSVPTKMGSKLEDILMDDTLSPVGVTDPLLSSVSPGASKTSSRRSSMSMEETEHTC

A-375 [2] = experiment: MITF: Counter assay: A375 proliferation Measured in Cell-Based System Using Plate Reader - 2084-03_Inhibitor_Dose_DryPowder_Activity. [Related pubchem assays (depositor defined):AID488944]; format: functional; details: Homo sapiens
[3] = viability of PTEN-deleted HCT116 cells – cell-based, HCT116 PTEN knockout, dose response (AID 1047); format: functional;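 note: HCT116 colon tumor cells with PTEN knocked out; cells exposed to compound for 60 hours before readout; potency for loss of cell viability measured by luminescence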
[4] = viability of HCT116 lacking mutant beta-catenin – cell-based, human colon tumor, dose response (AID 1045); format: functional;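 note: HCT116 colon tumor cells with beta catenin knocked out; cells exposed to compound for 60 hours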
[5] = DRD fibroblast viability loss – cell-based, non-viral oncogenic, luminescence, dose response (AID 1934); format: functional; details: Homo sapiens
[6] = blockers of HIV-1 envelope-mediated cell-cell fusion – cherry-pick, dose response (AID 652057); format: functional, cell-based
cells = format: functional, cell-based; details: HEK-CNG
BJ [7] = experiment: BJ-TERT fibroblast viability loss – cell-based, RAS-independent, luminescence, dose response (AID 1933); format: functional; details: Homo sapiens
Jurkat = experiment: blockers of NF-kB activation in T cells – Jurkat, luciferase reporter, luminescence, B- and T-cell, dose response (AID 489004); format: functional, cell-based; details: Homo sapiens;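 note: NF-kB luciferase reporter Jurkat cells stimulated with PMA plus ionomycin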
[8] = HIV-1 AD8 envelope cell-cell fusion blockers – cherry-pick, dose response (AID 652062); format: functional, cell-based;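 note: luciferase signal from cell-cell fusion driven by HIV-1 clade B AD8 Env; potency is for inhibitors of fusion seen as a drop in luminescence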
BJ [9] = experiment: cells; format: functional, cell-based; details: Homo sapiens
Galanin receptor type 3 = Galanin receptor type 3 (Homo sapiens, UniProt O60755); experiment: Fluorescence-based cell-based primary high throughput dose response assay to identify antagonists of the Galanin Receptor 3 (GalR3).; format: functional
[10] = viability loss in CEM21 cells – cell-based, CellTiter-Glo luminescence, cherry-picked, cytotoxicity control for viral fusion inhibitor project, dose response (AID 652042); format: functional;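 note: potency for signal decrease meaning cytotoxicity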
[11] = off-target signal loss in HeLa-CEM21 co-culture – HeLa F-luc CTL cells, cherry-picked, counter-screen for HIV-1 Env fusion inhibitor project, dose response (AID 652040); format: functional, cell-based;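 note: potency for signal decrease marking cytotoxic or nonspecific inhibition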
[12] = HEK-293T viability loss, compound-treated – cell-based, uHTS hits, cytotoxicity control for B/T-cell NF-kB inhibitor project, dose response (AID 489019); format: functional;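 note: IC50 reflects cytotoxicity as loss of cell viability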
[13] = blockers of HIV-1 ZM109 envelope-driven cell-cell fusion – HeLa effector, CEM target cells, luciferase, cherry-pick, dose response (AID 652058); format: functional, cell-based;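 note: luciferase signal from HIV-1 Env mediated cell-cell fusion of effector and target cells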
BJ [14] = experiment: BJ-TERT-LT-ST fibroblast viability loss – cell-based, RAS-independent, luminescence, dose response (AID 1935); format: functional; details: Homo sapiens;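 note: BJ fibroblasts immortalized with TERT plus LT and ST oncogenes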
INS1 = experiment: INS-1E survival protection against cytokine death – cell-based, luminescence, retest, dose response (AID 449756); format: functional; details: Rattus norvegicus;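 note: cell death triggered by IL-1 beta plus TNF-alpha plus IFN-gamma mixture; protective hits raise ATP signal compared with cytokine alone wells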
[15] = target: T2, Rac GTPase-activating protein 1 (Homo sapiens, UniProt Q9H0H5); experiment: blockers of MgcRacGAP-driven Rac1 GTP hydrolysis – biochemical, ADP Hunter fluorescence, primary and confirmatory, confirmation (AID 624330); format: functional
T2 sequence (Q9H0H5 whole entry): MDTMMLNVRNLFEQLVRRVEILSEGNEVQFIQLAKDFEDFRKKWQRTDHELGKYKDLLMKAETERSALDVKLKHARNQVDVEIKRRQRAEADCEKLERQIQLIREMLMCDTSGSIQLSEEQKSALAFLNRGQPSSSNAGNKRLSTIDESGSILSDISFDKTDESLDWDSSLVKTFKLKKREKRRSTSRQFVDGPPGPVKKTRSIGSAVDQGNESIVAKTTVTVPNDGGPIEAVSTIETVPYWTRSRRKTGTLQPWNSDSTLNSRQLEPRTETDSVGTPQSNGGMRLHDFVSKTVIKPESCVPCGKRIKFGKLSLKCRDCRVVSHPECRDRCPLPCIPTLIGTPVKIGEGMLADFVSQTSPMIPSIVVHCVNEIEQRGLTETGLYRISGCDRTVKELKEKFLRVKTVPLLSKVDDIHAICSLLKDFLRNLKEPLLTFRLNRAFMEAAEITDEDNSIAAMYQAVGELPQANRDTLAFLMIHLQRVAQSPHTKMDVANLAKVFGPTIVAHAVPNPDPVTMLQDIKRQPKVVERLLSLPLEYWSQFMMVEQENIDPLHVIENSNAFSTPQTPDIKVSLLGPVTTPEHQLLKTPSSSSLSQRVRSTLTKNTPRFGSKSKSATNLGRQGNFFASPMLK

[16] = viability loss in HeLa cells – cytotoxicity control for MgcRacGAP inhibitor project, dose response (AID 624300); format: functional
A-375 [17] = experiment: proliferation inhibition in MITF-low A375 cells – cell-based, cherry-pick samples, set 2, counter-screen for MITF modulator project, dose response (AID 540335); format: functional; details: Homo sapiens

Chain of Galanin receptor type 3 (O60755 whole entry, the tested form may be a part): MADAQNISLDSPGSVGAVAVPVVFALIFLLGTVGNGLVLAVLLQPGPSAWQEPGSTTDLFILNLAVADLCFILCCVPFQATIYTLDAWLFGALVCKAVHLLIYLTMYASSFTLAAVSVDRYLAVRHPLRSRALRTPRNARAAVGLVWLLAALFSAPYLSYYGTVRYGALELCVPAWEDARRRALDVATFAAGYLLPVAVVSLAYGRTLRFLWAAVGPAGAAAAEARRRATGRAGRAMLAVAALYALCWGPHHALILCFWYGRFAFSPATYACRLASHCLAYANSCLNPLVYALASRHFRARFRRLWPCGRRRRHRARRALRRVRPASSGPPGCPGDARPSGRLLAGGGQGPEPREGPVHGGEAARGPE

## COc1cccnc1N1CCN(C(=O)c2ccc(Cl)cc2)CC1
Candida albicans
  AC50: 12.3 µM (active)

## Cc1ccc(Cn2c(=N)n(CC(=O)c3ccc([N+](=O)[O-])cc3)c3ccccc32)cc1
[1]
  AC50: 6.42 µM (active)
A-375 [2]
  AC50: 33.5 µM (active)
[3]
  EC50: 5.32 µM (active)
[4]
  EC50: 4.07 µM (active)

## CCCCCCCCCn1ccc(=N)cc1
[5]
  EC50: 9.21 µM (active)
[6]
  AC50: 8.77 µM (active)
cells
  EC50: > 29.9 µM (inactive)
BJ [7]
  EC50: 9.76 µM (inconclusive)
Jurkat
  IC50: 6.34 µM (active)
[8]
  AC50: 0.848 µM (active)
BJ [9]
  EC50: 11.9 µM (active)
Galanin receptor type 3
  IC50: 1.95 µM (active)
[10]
  AC50: 24.1 µM (active)
[11]
  AC50: 2.39 µM (active)
[12]
  IC50: > 80 µM (inactive)
[13]
  AC50: 2 µM (active)
BJ [14]
  EC50: > 150 µM (inconclusive)
INS1
  AC50: 0.48 µM (active)

## CN(C)CCNc1ccc2nnn3c4ccc(O)cc4c(=O)c1c23
[15]
  IC50: 62.6 µM (active)
[1]
  AC50: 4.73 µM (active)
[16]
  CC50: 56.5 µM (active)
A-375 [17]
  AC50: 46 µM (active)
